Literature values in patent US9951057B2, “COMT inhibiting methods and compositions” (Lieber Institute for Brain Development, priority 2015, dated 2018).

How the values were obtained:
[1] = target: T1, aromatic amino acid decarboxylase (AAAD) (Homo sapiens, UniProt P20711); details: given with L-DOPA; Nutt, Woodward et al. 1985; cited from earlier work
T1 sequence (P20711 1-480): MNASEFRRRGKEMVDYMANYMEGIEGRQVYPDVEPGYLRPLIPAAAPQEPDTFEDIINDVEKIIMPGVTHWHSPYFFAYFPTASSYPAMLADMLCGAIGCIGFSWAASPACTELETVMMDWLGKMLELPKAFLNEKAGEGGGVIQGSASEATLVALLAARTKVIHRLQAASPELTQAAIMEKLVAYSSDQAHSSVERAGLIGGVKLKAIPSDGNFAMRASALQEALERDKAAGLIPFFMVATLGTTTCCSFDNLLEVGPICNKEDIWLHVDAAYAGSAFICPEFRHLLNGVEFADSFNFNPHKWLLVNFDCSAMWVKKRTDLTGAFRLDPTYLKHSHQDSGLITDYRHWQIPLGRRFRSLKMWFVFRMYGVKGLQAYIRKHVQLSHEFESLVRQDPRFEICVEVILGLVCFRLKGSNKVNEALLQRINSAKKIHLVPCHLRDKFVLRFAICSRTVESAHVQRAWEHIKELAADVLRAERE

[2] = Russ, et al. 1999; cited from earlier work
[3] = clinical use; Olanow and Watkins 2007; cited from earlier work

| SMILES | reduction of the efficacious L-DOPA dose [1] | brain penetration / levels in the brain [2] | liver injury [3] |
| --- | --- | --- | --- |
| C[C@@](Cc1ccc(O)c(O)c1)(NN)C(=O)O [Carbidopa] | 60-80% |  |  |
| Cc1ccc(C(=O)c2cc(O)c(O)c([N+](=O)[O-])c2)cc1 [tolcapone] |  | low but measurable levels in the brain | associated with serious liver injury, including three deaths |
